pEC50, pIC50: −log10 of the molar value. Where two headings read alike, the source gives them in different places.
Legend:
MCF7 cells = assay: Cell viability assay (PrestoBlue); type: cell-based; conditions: Homo sapiens, MCF7, 120 h; cell viability at day 5; read-out: Antiproliferative activity (EC50) MCF7
[1] = target: selection of recombinant kinases; assay: Kinase screening assay, panel summary; type: biochemical, human; conditions: 15 kinases of Table 2
[2] = system: SYF fibroblasts (deficient for Src, Yes, and Fyn); assay: Cell viability assay (PrestoBlue); type: cell-based, murine; conditions: Mus musculus, Fibroblast, 120 h; cell viability at day 5; read-out: Antiproliferative activity (EC50) SYF (−/− Src)
CYP2C9 = CYP2C9 (Homo sapiens (Human), UniProt P11712); assay: CYP P450 inhibition
Chain of CYP2C9 (P11712 whole entry): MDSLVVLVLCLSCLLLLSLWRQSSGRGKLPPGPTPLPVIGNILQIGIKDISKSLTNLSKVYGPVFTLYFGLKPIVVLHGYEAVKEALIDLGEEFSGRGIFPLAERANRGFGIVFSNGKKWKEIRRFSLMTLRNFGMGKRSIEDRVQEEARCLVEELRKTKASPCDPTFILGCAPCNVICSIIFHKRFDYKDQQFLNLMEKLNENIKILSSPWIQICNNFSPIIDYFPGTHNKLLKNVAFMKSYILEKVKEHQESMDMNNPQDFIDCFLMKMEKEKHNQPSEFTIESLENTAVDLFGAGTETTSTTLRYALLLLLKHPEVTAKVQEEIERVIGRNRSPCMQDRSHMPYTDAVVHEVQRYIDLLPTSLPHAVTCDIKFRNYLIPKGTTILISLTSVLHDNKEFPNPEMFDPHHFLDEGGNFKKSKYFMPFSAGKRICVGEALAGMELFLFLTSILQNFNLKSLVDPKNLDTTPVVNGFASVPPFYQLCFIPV

LYN = LYN (Homo sapiens (Human), UniProt P07948); assay: Kinase screening assay (IC50)
hERG channel [3] = target: T1, hERG channel (Homo sapiens (Human), UniProt Q12809); assay: Predictor hERG Fluorescence Polarization Assay; type: binding; conditions: fluorescence polarization kit; read-out: hERG channel inhibition IC50
Description: These experiments corroborated the safety of the compounds.

[4] = Liver microsome stability; type: in vitro ADME; conditions: % of unmodified drug after 30 min incubation with liver microsomes
[5] = human, serum
CYP3A4 = CYP3A4 (Homo sapiens (Human), UniProt P08684); assay: CYP P450 inhibition
Chain of CYP3A4 (P08684 whole entry): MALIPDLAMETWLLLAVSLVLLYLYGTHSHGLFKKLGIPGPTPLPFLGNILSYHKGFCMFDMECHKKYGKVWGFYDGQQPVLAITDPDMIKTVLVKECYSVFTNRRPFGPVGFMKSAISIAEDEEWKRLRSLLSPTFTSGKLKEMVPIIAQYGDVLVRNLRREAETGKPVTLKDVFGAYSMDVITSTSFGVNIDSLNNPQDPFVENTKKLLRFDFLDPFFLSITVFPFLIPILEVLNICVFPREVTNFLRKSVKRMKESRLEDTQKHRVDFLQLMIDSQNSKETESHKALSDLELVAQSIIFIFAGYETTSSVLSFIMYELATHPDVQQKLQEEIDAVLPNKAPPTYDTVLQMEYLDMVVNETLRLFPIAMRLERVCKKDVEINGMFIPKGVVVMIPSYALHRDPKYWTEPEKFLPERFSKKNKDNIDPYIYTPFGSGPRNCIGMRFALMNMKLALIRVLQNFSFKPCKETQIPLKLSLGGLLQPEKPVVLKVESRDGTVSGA

BLK = BLK (Homo sapiens (Human), UniProt P51451); assay: Kinase screening assay (IC50)
RET = RET (Homo sapiens (Human), UniProt P07949); assay: Kinase screening assay (IC50)
Chain of RET (P07949 29-1114): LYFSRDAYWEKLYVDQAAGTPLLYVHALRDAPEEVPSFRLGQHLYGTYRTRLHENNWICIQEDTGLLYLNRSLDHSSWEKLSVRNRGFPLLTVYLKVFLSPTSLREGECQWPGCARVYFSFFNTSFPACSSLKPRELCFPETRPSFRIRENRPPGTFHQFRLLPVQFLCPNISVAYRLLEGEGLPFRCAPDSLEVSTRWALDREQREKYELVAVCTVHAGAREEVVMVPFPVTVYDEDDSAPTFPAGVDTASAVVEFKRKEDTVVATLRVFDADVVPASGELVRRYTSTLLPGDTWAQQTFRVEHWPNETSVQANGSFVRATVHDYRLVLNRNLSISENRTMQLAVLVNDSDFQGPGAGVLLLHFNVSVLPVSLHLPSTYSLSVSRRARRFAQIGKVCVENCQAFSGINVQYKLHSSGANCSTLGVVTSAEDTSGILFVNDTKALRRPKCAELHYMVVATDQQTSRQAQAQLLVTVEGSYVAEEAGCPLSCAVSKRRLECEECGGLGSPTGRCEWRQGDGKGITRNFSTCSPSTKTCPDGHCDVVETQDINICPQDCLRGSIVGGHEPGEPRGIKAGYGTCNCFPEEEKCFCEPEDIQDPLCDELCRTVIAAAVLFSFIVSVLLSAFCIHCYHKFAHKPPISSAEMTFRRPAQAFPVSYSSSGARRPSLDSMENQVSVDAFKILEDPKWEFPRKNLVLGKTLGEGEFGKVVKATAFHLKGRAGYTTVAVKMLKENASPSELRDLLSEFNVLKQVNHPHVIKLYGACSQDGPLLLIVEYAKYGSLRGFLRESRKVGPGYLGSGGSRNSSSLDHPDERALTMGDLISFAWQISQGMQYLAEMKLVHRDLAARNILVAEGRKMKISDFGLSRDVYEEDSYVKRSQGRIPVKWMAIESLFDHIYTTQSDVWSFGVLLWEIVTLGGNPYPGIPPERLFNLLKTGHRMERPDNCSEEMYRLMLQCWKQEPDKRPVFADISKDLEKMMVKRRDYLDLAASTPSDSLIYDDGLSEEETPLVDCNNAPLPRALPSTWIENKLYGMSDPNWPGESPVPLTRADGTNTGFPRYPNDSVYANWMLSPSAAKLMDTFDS

CYP2D6 = CYP2D6 (Homo sapiens (Human), UniProt P10635); assay: CYP P450 inhibition
Chain of CYP2D6 (P10635 whole entry): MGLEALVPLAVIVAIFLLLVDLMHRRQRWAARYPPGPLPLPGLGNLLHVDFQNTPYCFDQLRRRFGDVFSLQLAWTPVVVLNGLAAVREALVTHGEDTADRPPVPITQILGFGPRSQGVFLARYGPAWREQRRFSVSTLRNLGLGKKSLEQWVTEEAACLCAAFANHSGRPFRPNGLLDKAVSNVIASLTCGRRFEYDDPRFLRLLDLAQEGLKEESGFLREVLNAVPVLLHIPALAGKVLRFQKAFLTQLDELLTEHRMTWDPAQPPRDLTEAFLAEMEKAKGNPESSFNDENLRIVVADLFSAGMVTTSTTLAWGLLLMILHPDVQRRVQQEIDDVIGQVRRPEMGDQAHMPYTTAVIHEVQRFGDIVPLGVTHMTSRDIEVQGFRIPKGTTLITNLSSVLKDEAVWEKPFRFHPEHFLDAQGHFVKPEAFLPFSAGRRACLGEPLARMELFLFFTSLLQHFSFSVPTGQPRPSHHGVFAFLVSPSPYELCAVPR

mTOR = mTOR (Homo sapiens (Human), UniProt P42345); assay: Kinase screening assay (IC50); type: biochemical
PDGFRa = PDGFRa (Homo sapiens (Human), UniProt P16234); assay: Kinase screening assay (IC50); type: biochemical
KIT = KIT (Homo sapiens (Human), UniProt P10721); assay: Kinase screening assay (IC50)
Chain of KIT (P10721 26-976): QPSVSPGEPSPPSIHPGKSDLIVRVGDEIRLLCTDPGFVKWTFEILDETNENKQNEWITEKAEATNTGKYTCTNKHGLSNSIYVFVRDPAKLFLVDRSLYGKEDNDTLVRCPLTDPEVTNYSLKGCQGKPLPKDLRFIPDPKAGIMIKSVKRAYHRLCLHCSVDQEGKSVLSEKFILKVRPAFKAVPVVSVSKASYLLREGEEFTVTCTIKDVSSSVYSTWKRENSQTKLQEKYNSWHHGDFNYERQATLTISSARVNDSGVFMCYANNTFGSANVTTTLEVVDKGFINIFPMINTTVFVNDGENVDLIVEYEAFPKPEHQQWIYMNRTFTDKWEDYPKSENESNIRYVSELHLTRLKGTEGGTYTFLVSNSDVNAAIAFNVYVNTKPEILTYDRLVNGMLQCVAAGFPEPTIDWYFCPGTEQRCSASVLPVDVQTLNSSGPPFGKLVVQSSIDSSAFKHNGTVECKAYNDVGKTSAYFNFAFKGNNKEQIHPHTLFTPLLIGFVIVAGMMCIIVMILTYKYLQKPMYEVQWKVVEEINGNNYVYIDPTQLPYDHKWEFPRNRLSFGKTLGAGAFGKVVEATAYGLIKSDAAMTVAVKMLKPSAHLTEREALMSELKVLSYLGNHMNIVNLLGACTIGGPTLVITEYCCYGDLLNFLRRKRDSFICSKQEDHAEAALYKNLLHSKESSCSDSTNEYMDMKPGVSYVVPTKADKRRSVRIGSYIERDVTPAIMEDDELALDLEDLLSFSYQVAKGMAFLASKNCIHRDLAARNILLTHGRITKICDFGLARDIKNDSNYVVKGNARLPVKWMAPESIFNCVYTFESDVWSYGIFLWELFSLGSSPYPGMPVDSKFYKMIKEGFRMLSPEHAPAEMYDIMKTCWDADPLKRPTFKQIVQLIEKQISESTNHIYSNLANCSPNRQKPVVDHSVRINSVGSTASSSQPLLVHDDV

FYN = FYN (Homo sapiens (Human), UniProt P06241); assay: Kinase screening assay (IC50)
Chain of FYN (P06241 whole entry): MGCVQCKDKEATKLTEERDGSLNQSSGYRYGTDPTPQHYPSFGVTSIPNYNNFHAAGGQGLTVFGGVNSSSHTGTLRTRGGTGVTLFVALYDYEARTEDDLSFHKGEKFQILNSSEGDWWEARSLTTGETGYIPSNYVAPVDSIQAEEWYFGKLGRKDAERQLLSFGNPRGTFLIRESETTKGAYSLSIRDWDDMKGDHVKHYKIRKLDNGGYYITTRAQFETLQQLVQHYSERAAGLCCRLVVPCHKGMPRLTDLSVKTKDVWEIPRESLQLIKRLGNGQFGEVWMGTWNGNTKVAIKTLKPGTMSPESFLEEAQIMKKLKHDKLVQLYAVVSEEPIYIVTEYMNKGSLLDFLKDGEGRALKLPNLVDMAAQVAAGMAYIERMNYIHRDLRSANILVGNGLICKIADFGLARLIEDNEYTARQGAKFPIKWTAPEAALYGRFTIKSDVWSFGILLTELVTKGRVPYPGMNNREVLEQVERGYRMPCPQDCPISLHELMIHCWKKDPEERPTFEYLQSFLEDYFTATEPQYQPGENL

hERG channel [6] = target: T1, hERG channel; assay: hERG Safety Assay, Ionworks high-throughput electrophysiology
[7] = rat, serum
FGR = FGR (Homo sapiens (Human), UniProt P09769); assay: Kinase screening assay (IC50)
HCK = HCK (Homo sapiens (Human), UniProt P08631); assay: Kinase screening assay (IC50)
LCK = LCK (Homo sapiens (Human), UniProt P06239); assay: Kinase screening assay (IC50)
CYP2C19 = CYP2C19 (Homo sapiens (Human), UniProt P33261); assay: CYP P450 inhibition
CYP1A2 [8] = target: T2, CYP1A2 (Homo sapiens (Human), UniProt P05177); assay: in vitro
T2 sequence (P05177 whole entry): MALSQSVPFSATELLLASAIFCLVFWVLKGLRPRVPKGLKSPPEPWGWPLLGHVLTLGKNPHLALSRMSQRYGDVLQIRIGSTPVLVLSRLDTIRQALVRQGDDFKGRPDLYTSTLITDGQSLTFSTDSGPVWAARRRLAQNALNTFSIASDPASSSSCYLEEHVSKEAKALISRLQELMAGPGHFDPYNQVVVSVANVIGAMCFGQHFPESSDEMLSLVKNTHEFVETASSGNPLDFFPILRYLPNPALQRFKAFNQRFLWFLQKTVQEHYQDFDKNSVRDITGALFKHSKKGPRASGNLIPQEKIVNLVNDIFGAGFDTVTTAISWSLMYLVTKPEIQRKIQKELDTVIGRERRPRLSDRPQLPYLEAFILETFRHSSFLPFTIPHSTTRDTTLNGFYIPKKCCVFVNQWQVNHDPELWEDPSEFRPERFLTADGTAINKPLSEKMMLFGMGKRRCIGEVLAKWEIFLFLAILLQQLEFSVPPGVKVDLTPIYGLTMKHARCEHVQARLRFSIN

[9] = PBS, aqueous buffer
CYP1A2 [10] = target: T2, CYP1A2; assay: CYP P450 inhibition
[11] = mouse, in vivo
Stability in rat plasma = conditions: % of unmodified drug after 120 min in plasma
FRK/PTK5 = FRK/PTK5 (Homo sapiens (Human), UniProt P42685); assay: Kinase screening assay (IC50)
in vivo = conditions: female, mouse
[12] = Stability in mouse plasma; type: in vitro ADME; conditions: % of unmodified drug after 120 min in plasma
[13] = Stability in human plasma; type: in vitro ADME; conditions: % of unmodified drug after 120 min in plasma
[14] = read-out: Kinase Screening (IC50) LYN, Src Family
[15] = read-out: Target inhibition (IC50) LYN, 10 μM ATP
[16] = read-out: Kinase Screening (IC50) BLK, Src Family
[17] = read-out: Target inhibition (IC50) BLK, 10 μM ATP
[18] = read-out: Kinase Screening (IC50) RET
[19] = read-out: Target inhibition (IC50) RET, 10 μM ATP
[20] = 10 μM ATP, read-out: Target inhibition (IC50) mTOR
[21] = read-out: Kinase Screening (IC50) mTOR
[22] = 10 μM ATP, read-out: Target inhibition (IC50) PDGFRa
[23] = read-out: Kinase Screening (IC50) PDGFRa
[24] = read-out: Kinase Screening (IC50) c-KIT
[25] = read-out: Kinase Screening (IC50) FYN, Src Family
[26] = read-out: Target inhibition (IC50) FYN, 10 μM ATP
[27] = read-out: Kinase Screening (IC50) FGR, Src Family
[28] = read-out: Target inhibition (IC50) FGR, 10 μM ATP
[29] = read-out: Kinase Screening (IC50) LCK, Src Family
[30] = read-out: Target inhibition (IC50) LCK, 10 μM ATP
[31] = read-out: Target inhibition (IC50) KIT, 10 μM ATP

For `CN(C)C1CCN(CCn2nc(-c3ccc(CC(=O)O)cc3)c3c(N)ncnc32)CC1` [Compound 556, 2-[4-[4-amino-1-[2-[4-(dimethylamino)-1-piperidyl]ethyl]pyrazolo[3,4-d]pyrimidin-3-yl]phenyl]acetic acid], the pEC50 (MCF7 cells) was under 5.00, the “Target inhibition (IC50), remark on the whole panel” value [1] was “No inhibition found” and the pEC50 [2] was under 5.00.

`COc1cc(-c2nn(CCN3CCC(N(C)C)CC3)c3ncnc(N)c23)ccc1NCc1ccccc1` [Compound 533, 3-[4-(benzylamino)-3-methoxy-phenyl]-1-[2-[4-(dimethylamino)-1-piperidyl]ethyl]pyrazolo[3,4-d]pyrimidin-4-amine] showed an inhibition at 10 µM (CYP2C9) of -35.4%, a pIC50 (LYN; [14]) of over 8.00 and a pIC50 (LYN; [15]) of over 8.00. For the same compound, the pIC50 (hERG channel [3]) was 4.82 to 5.00, the “30 min Liver Microsome stability” value [4] was 98.8% and the fraction unbound [5] was 0.118. For the same compound, the inhibition at 10 µM (CYP3A4) was 3.1%, the pIC50 (BLK; [16]) was over 8.00 and the pIC50 (BLK; [17]) was over 8.00. The pIC50 (RET; [18]) was under 6.00, the pIC50 (RET; [19]) was under 6.00 and the inhibition at 10 µM (CYP2D6) was 7.4%. It also gave a pIC50 (mTOR; [20]) of under 6.00, a pIC50 (mTOR; [21]) of under 6.00 and a pIC50 (PDGFRa; [22]) of under 6.00. The pIC50 (PDGFRa; [23]) was under 6.00, the pIC50 (KIT) was 6.00 to 7.00 and the pIC50 (KIT; [24]) was 6.00 to 7.00. For the same compound, the pIC50 (FYN; [25]) was over 8.00, the pIC50 (FYN; [26]) was over 8.00 and the pIC50 (hERG channel [6]) was 5.59. For the same compound, the fraction unbound [7] was 0.106, the pIC50 (FGR; [27]) was over 8.00 and the pIC50 (FGR; [28]) was over 8.00. It also gave a pIC50 (HCK; read-out: Kinase Screening (IC50) HCK, Src Family) of over 8.00, a pIC50 (HCK; read-out: Target inhibition (IC50) HCK, 10 μM ATP) of over 8.00 and a pIC50 (LCK; [29]) of over 8.00. The pIC50 (LCK; [30]) was over 8.00, the inhibition at 10 µM (CYP2C19) was 26.8% and the inhibition at 10 µM (CYP1A2 [8]) was 8.3%.

`COc1cc(-c2nn(CCN3CCC(N(C)C)CC3)c3ncnc(N)c23)ccc1NC(=O)OC(C)(C)C` [Compound 506, tert-butyl N-[4-[4-amino-1-[2-[4-(dimethylamino)-1-piperidyl]ethyl]pyrazolo[3,4-d]pyrimidin-3-yl]-2-methoxy-phenyl]carbamate] showed an inhibition at 10 µM (CYP2C9) of -23.1%, a solubility [9] of over 100 mg/mL and an inhibition at 10 µM (CYP3A4) of -74.6%. For the same compound, the pIC50 (RET) was under 5.00, the pIC50 (RET; [18]) was under 6.00 and the pIC50 (RET; [19]) was under 6.00. The inhibition at 10 µM (CYP2D6) was 31.8%, the pIC50 (KIT) was 5.29 and the pIC50 (KIT; [24]) was under 6.00. It also gave a pIC50 (KIT; [31]) of under 6.00, a pIC50 (hERG channel [6]) of 4.74 and an inhibition at 10 µM (CYP1A2 [10]) of 24.6%. It also gave an inhibition at 10 µM (CYP2C19) of -5.4%.

With `COc1cc(-c2nn(CCN3CCC(N(C)C)CC3)c3ncnc(N)c23)ccc1CC(=O)OC(C)(C)C` [Compound 565, tert-butyl 2-[4-[4-amino-1-[2-[4-(dimethylamino)-1-piperidyl]ethyl]pyrazolo[3,4-d]pyrimidin-3-yl]-2-methoxy-phenyl]acetate] the “toxic effects in PK study” value [11] was “no toxic effects”, the inhibition at 10 µM (CYP2C9) was -35.8% and the pIC50 (LYN; [14]) was over 8.00. For the same compound, the pIC50 (LYN; [15]) was over 8.00, the “Stability in rat plasma” value (Stability in rat plasma) was 93.3%^ and the pIC50 (FRK/PTK5; read-out: Kinase Screening (IC50) FRK, Src Family) was over 8.00. For the same compound, the pIC50 (FRK/PTK5; read-out: Target inhibition (IC50) FRK/PTK5, 10 μM ATP) was over 8.00, the bioavailability (in vivo) was 52% and the half-life (in vivo) was 2 h. For the same compound, the bioavailability (in vivo; po) was 52%, the “30 min Liver Microsome stability” value [4] was 78.7% and the fraction unbound [5] was 0.177. It also gave a solubility [9] of over 100 mg/mL, an inhibition at 10 µM (CYP3A4) of 5.7% and a pIC50 (BLK; [16]) of over 8.00. The pIC50 (BLK; [17]) was over 8.00, the pIC50 (RET; [18]) was under 6.00 and the pIC50 (RET; [19]) was under 6.00. The inhibition at 10 µM (CYP2D6) was 9.4%, the pIC50 (mTOR; [20]) was under 6.00 and the pIC50 (mTOR; [21]) was under 6.00. The “Stability in mouse plasma” value [12] was 100%, the pIC50 (PDGFRa; [22]) was under 6.00 and the pIC50 (PDGFRa; [23]) was under 6.00. For the same compound, the pIC50 (KIT; [24]) was under 6.00, the pIC50 (KIT; [31]) was under 6.00 and the pIC50 (FYN; [25]) was over 8.00. For the same compound, the pIC50 (FYN; [26]) was over 8.00, the “Stability in human plasma” value [13] was 94% and the pIC50 (hERG channel [6]) was under 4.60. For the same compound, the fraction unbound [7] was 0.139, the pIC50 (FGR; [27]) was over 8.00 and the pIC50 (FGR; [28]) was over 8.00. For the same compound, the pIC50 (LCK; [29]) was over 8.00, the pIC50 (LCK; [30]) was over 8.00 and the inhibition at 10 µM (CYP2C19) was -0.4%. For the same compound, the inhibition at 10 µM (CYP1A2 [8]) was 4.3%.

— patent US10294227B2, “Compounds” (UNIVERSITY COURT OF THE UNIVERSITY OF EDINBURGH, priority 2015, dated 2019)
